This test concerns the target T1, human PAH with the R408W mutation (A375 R408W cells) (Homo sapiens, UniProt P00439, R408W).
T1 construct: expressed in transfected cells
T1 sequence (P00439 1-452 R408W): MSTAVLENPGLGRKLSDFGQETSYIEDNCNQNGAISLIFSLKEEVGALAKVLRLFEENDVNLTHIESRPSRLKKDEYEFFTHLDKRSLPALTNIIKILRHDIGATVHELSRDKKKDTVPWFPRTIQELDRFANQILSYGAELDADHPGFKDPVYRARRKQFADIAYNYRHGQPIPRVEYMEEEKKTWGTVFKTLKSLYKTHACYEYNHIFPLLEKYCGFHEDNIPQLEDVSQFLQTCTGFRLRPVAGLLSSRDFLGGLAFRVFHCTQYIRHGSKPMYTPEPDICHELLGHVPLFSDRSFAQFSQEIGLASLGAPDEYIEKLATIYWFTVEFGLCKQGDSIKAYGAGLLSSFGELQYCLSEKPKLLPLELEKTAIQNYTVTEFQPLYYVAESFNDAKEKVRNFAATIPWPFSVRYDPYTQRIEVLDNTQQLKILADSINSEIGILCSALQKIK
The test is described as follows: Cell Based Phenylalanine Flux Assay. Conditions: 24 hrs with compound, then 20 μM sepiapterin and 800 μM 13C9,15N-Phenylalanine for 4 hours, 13C-Tyrosine by LC-MS, average where tested multiple times. Summed up: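 Phenylalanine-to-tyrosine flux is measured in A375 cells carrying stable human R408W PAH. After 24 h compound exposure, 13C9,15N-Phe (800 μM) with sepiapterin (20 μM) is supplied for 4 h and media 13C-Tyr is read by LC-MS; AC50s are binned.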

[1] abbreviates: A375 cells expressing R408W PAH.

In the case of `Cc1cccc2oc([C@@H]3c4nc[nH]c4CCN3C(=O)c3nnc(-c4ccccn4)o3)nc12` [Example 482, (S)-(4-(4-methylbenzo[d]oxazol-2-yl)-6,7-dihydro-1H-imidazo[4,5-c]pyridin-5(4H)-yl)(5-(pyridin-2-yl)-1,3,4-oxadiazol-2-yl)methanone], where the note is “A375 R408W cells”, the AC50 (as a rule, the concentration at which the activity in the assay is half-maximal) was not above 500 nM.

Consider `Cn1nc(C(F)F)nc1C(=O)N1CCc2[nH]cnc2C1c1nc2cc(F)ccc2o1` (stereo not shown), for which the half-maximal activity concentration (AC50) under setting [1] lay within 1000 to 5000 nM.

For `O=C(c1ocnc1CC(F)F)N1CCc2[nH]cnc2[C@H]1c1nc2cc(F)ccc2o1` [Example 865, (S)-(4-(2,2-difluoroethyl)oxazol-5-yl)(4-(5-fluorobenzo[d]oxazol-2-yl)-6,7-dihydro-1H-imidazo[4,5-c]pyridin-5(4H)-yl)methanone], the AC50 (A375 R408W cells) was not above 500 nM.

Regarding `O=C(c1ccnn1C(F)F)N1CCc2[nH]cnc2[C@@H]1c1nc2cccc(F)c2o1` [Example 196, (R)-(1-(difluoromethyl)-1H-pyrazol-5-yl)(4-(7-fluorobenzo[d]oxazol-2-yl)-6,7-dihydro-1H-imidazo[4,5-c]pyridin-5(4H)-yl)methanone], the AC50 (A375 R408W cells) was in the range of 1000 to 5000 nM.

With `O=C(c1ccnn1C(F)(F)F)N1Cc2[nH]cnc2[C@H]1c1nc2ccccc2o1` [Example 953, (S)-(4-(benzo[d]oxazol-2-yl)-4,6-dihydropyrrolo[3,4-d]imidazol-5(1H)-yl)(1-(trifluoromethyl)-1H-pyrazol-5-yl)methanone], where the note is “A375 R408W cells”, the AC50 lay in the range of 1000 to 5000 nM.

As to `Cc1ncoc1C(=O)N1CCc2[nH]cnc2[C@@H]1c1nc2cccc(F)c2o1` [Example 570, (R)-(4-(7-fluorobenzo[d]oxazol-2-yl)-6,7-dihydro-1H-imidazo[4,5-c]pyridin-5(4H)-yl)(4-methyloxazol-5-yl)methanone], the AC50 (A375 R408W cells) lay in the range of 1000 to 5000 nM.

As to `CNC(C)(C)c1nc(C(F)F)c(C(=O)N2CCc3[nH]cnc3[C@H]2c2nc3cc(F)ccc3o2)o1` [Example 221, (S)-(4-(difluoromethyl)-2-(2-(methylamino)propan-2-yl)oxazol-5-yl)(4-(5-fluorobenzo[d]oxazol-2-yl)-6,7-dihydro-1H-imidazo[4,5-c]pyridin-5(4H)-yl)methanone], for the setting “A375 R408W cells”, the AC50 was in the range of 500 to 1000 nM.

`Cc1nc(N2CCC(F)CC2)oc1C(=O)N1CCc2[nH]cnc2C1c1nc2cc(F)ccc2o1` (stereo not shown): under setting [1], the AC50 is 1000 to 5000 nM.

As to `COc1cccc2oc([C@@H]3c4nc[nH]c4CCN3C(=O)c3nc(C)nn3C)nc12` [Example 827, (S)-(1,3-dimethyl-1H-1,2,4-triazol-5-yl)(4-(4-methoxybenzo[d]oxazol-2-yl)-6,7-dihydro-1H-imidazo[4,5-c]pyridin-5(4H)-yl)methanone], the AC50 (A375 R408W cells) is 1000 to 5000 nM.

Regarding `CC(C)(O)c1nc(C(F)F)c(C(=O)N2CCc3[nH]cnc3[C@H]2c2nc3ccc(F)c(F)c3o2)o1` [Example 297, (S)-(4-(6,7-difluorobenzo[d]oxazol-2-yl)-6,7-dihydro-1H-imidazo[4,5-c]pyridin-5(4H)-yl)(4-(difluoromethyl)-2-(2-hydroxypropan-2-yl)oxazol-5-yl)methanone], under “A375 R408W cells”, the AC50 was not above 500 nM.

For the compound `Cc1cccc2oc([C@H]3c4nc[nH]c4CCN3C(=O)c3nnc(-c4ccccn4)o3)nc12` [Example 481, (R)-(4-(4-methylbenzo[d]oxazol-2-yl)-6,7-dihydro-1H-imidazo[4,5-c]pyridin-5(4H)-yl)(5-(pyridin-2-yl)-1,3,4-oxadiazol-2-yl)methanone], where the note is “A375 R408W cells”, the AC50 lay within 500 to 1000 nM.

As to `O=C(c1c(C(F)(F)F)nn2ccccc12)N1CCc2[nH]cnc2[C@H]1c1nc2cc(F)ccc2o1` [Example 915, (S)-(4-(5-fluorobenzo[d]oxazol-2-yl)-6,7-dihydro-1H-imidazo[4,5-c]pyridin-5(4H)-yl)(2-(trifluoromethyl)pyrazolo[1,5-a]pyridin-3-yl)methanone], the AC50 (A375 R408W cells) is not above 500 nM.

In the case of `O=C(c1oc(-c2cnccn2)nc1C(F)F)N1CCc2[nH]cnc2[C@H]1c1nc2cccc(F)c2o1` [Example 693, (S)-(4-(difluoromethyl)-2-(pyrazin-2-yl)oxazol-5-yl)(4-(7-fluorobenzo[d]oxazol-2-yl)-6,7-dihydro-1H-imidazo[4,5-c]pyridin-5(4H)-yl)methanone], where the note is “A375 R408W cells”, the AC50 is not above 500 nM.

The record behind these values is US20250171437A1 (Agios Pharmaceuticals,Inc., priority 2022, published 2025).
